Experiments:
[1] = tested on: HAP1 MTAP-deleted; assay: SDMA in-cell western assay, HAP1 MTAP-deleted cell line; format: cell-based; details: for IC50: Homo sapiens, HAP1 MTAP-deleted cell line; for MTAP Intact/Deleted Ratio: IC50 ratio HAP1 MTAP-intact / HAP1 MTAP-deleted
Method in brief: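 These are IC50 values from an in-cell western measuring SDMA. The HAP1 cells used carry no MTAP, in contrast to the isogenic partner line with endogenous MTAP expression.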

[2] = tested on: HAP1 MTAP-intact; assay: SDMA in-cell western assay, HAP1 MTAP-intact cell line; format: cell-based; details: Homo sapiens
Method in brief: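 Potency reflects cellular SDMA reduction, detected by in-cell western, in HAP1 cells with or without MTAP (endogenous expression versus null).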

[3] = biological target: T1, PRMT5 (Homo sapiens, UniProt O14744); assay: PRMT5 IC50 assay in the presence of SAM as cofactor; format: biochemical
T1 construct: purchased Viva (custom protein)
Method in brief: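 Ki conversion: SAM arm, Ki=IC50/1.5; MTA arm, Ki=IC50/13.5. No-cofactor arm reported as IC50 only. Selectivity expressed as Ki(SAM)/Ki(MTA).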

[4] = biological target: T1, PRMT5; assay: PRMT5 IC50 assay with no cofactor; format: biochemical; details: read-out: No Co-factor IC50
Method in brief: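 Enzyme: human PRMT5. Conditions: plus SAM, plus MTA, or cofactor-free. Output: IC50 (μM); Ki via IC50/1.5 (SAM) or IC50/13.5 (MTA).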

[5] = biological target: T1, PRMT5; assay: PRMT5 IC50 assay in the presence of MTA as cofactor; format: biochemical; details: for IC50: PRMT5, MTA as cofactor; for SAM/MTA Ratio: ratio between Ki in the presence of SAM and Ki in the presence of MTA
Method in brief: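 IC50 values were measured against human PRMT5 with SAM, with MTA, or with no cofactor. Ki was derived from IC50 as Ki=IC50/1.5 with SAM and Ki=IC50/13.5 with MTA, and the Ki(SAM)/Ki(MTA) ratio was then taken.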

T1 sequence (O14744 whole entry): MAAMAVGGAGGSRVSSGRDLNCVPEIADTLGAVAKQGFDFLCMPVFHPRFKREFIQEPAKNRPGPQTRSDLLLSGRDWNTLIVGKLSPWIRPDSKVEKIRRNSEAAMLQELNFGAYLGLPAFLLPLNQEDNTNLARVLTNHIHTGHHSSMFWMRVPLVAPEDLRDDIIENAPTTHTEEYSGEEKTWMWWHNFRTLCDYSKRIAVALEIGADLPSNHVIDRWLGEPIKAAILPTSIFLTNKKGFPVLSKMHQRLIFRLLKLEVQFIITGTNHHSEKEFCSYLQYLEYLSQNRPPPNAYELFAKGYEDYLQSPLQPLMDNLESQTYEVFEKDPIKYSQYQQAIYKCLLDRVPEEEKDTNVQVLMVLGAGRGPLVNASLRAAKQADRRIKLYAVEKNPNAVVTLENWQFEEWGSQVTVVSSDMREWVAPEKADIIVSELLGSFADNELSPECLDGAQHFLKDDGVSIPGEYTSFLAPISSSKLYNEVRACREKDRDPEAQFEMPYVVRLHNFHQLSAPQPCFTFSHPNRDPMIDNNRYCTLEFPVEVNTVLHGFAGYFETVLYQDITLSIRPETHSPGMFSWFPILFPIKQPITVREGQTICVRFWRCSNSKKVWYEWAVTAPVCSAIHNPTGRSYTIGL
T1 sequence (Q9BQA1 whole entry partner): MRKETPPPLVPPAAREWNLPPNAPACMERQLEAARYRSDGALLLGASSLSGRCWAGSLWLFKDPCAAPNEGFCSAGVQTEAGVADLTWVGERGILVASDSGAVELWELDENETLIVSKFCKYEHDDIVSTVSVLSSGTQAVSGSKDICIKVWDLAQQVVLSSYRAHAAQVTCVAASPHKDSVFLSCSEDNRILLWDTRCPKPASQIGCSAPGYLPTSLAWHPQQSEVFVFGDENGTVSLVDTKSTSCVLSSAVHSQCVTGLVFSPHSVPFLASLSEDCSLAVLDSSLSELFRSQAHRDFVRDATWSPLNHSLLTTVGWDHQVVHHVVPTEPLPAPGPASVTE

IC50 [1] [µM]	IC50 [2] [µM]	IC50 [3] [µM]	IC50 [4] [µM]	IC50 [5] [µM]	SMILES	MTAP Intact/Deleted Ratio [1]	SAM/MTA Ratio [5]
1 to 10	≥ 10	0.05 to 0.5	0.5 to 5	0.05 to 0.5	O=C(NC[C@H](O)CN1CCc2c(ccc(OCc3cnco3)c2Cl)C1)c1cc(NC2COC2)nc(N2CCCCC2)n1 [Compound 327, (S)—N-(3-(5-chloro-6-(oxazol-5-ylmethoxy)-3N-dihydroisoquinolin-2(1H)-yl)-2-hydroxypropyl)-6-(oxetan-3-ylamino)-2-(piperidin-1-yl)pyrimidine-4-carboxamide]	B* (an IC50 ratio greater than or equal to 3 fold but lower than 10 fold between the IC50 in the HAP1 MTAP-intact cell line and the HAP1 MTAP-deleted cell line)	A (a Ki ratio greater than or equal to 10 fold between the Ki in the presence of SAM and the Ki in the presence of MTA)
< 1	1 to 10	0.05 to 0.5	0.5 to 5	0.05 to 0.5	O=C(NC[C@H](O)CN1CCc2cc(OCc3cnco3)ccc2C1)c1ccc(OC2CCN(Cc3ccncc3)CC2)cc1 [Compound 328]	C* (an IC50 ratio of less than 3 fold between the IC50 in the HAP1 MTAP-intact cell line and the HAP1 MTAP-deleted cell line)	A (a Ki ratio greater than or equal to 10 fold between the Ki in the presence of SAM and the Ki in the presence of MTA)
1 to 10	≥ 10	0.05 to 0.5	0.5 to 5	< 0.05	CN(C)CCOc1cc(C(=O)NC[C@H](O)CN2CCc3c(ccc(OCc4cnco4)c3Cl)C2)cc(NC2CCC2)n1 [Compound 329, (S)—N-(3-(5-chloro-6-(oxazol-5-ylmethoxy)-3N-dihydroisoquinolin-2(1H)-yl)-2-hydroxypropyl)-2-(cyclobutylamino)-6-(2-(dimethylamino)ethoxy)isonicotinamide]	B* (an IC50 ratio greater than or equal to 3 fold but lower than 10 fold between the IC50 in the HAP1 MTAP-intact cell line and the HAP1 MTAP-deleted cell line)	A (a Ki ratio greater than or equal to 10 fold between the Ki in the presence of SAM and the Ki in the presence of MTA)
≥ 10	≥ 10	0.05 to 0.5	0.5 to 5	0.05 to 0.5	O=C(NC[C@H](O)CN1CCc2c(ccc(OCc3cnco3)c2Cl)C1)c1ccc(OC2CCN(Cc3ccccc3)CC2)cc1 [Compound 330, (S)-4-((1-benzylpiperidin-4-yl)oxy)-N-(3-(5-chloro-6-(oxazol-5-ylmethoxy)-3,4-dihydroisoquinolin-2(1H)-yl)-2-hydroxypropyl)benzamide]	C* (an IC50 ratio of less than 3 fold between the IC50 in the HAP1 MTAP-intact cell line and the HAP1 MTAP-deleted cell line)	A (a Ki ratio greater than or equal to 10 fold between the Ki in the presence of SAM and the Ki in the presence of MTA)
< 1	< 1	0.05 to 0.5	≥ 5	0.05 to 0.5	Cc1ncoc1COc1ccc2c(c1)CCN(C[C@@H](O)CNC(=O)c1cc(NC3CCCC3)ncn1)C2 [Compound 333, 6-(cyclopentylamino)-N-[(2S)-2-hydroxy-3-{6-[(4-methyl-1,3-oxazol-5-yl)methoxy]-1,2,3,4-tetrahydroisoquinolin-2-yl}propyl]pyrimidine-4-carboxamide]	C* (an IC50 ratio of less than 3 fold between the IC50 in the HAP1 MTAP-intact cell line and the HAP1 MTAP-deleted cell line)	A (a Ki ratio greater than or equal to 10 fold between the Ki in the presence of SAM and the Ki in the presence of MTA)
< 1	< 1	0.5 to 5	≥ 5	0.05 to 0.5	O=C(NC[C@H](O)CN1CCc2cc(OCc3cnco3)ccc2C1)c1cc(NC2CCC2)ncc1F [Compound 334, (S)-2-(cyclobutylamino)-5-fluoro-N-(2-hydroxy-3-(6-(oxazol-5-ylmethoxy)-3A-dihydroisoquinolin-2(1H)-yl)propyl)isonicotinamide]	C* (an IC50 ratio of less than 3 fold between the IC50 in the HAP1 MTAP-intact cell line and the HAP1 MTAP-deleted cell line)	A (a Ki ratio greater than or equal to 10 fold between the Ki in the presence of SAM and the Ki in the presence of MTA)
≥ 10	≥ 10	0.5 to 5	≥ 5	0.5 to 5	O=C(NC[C@H](O)CN1CCc2c(ccc(OCc3cnco3)c2Cl)C1)c1cccc(NC2CCC2)c1 [Compound 335, (S)—N-(3-(5-chloro-6-(oxazol-5-ylmethoxy)-3,4-dihydroisoquinolin-2(1H)-yl)-2-hydroxypropyl)-3-(cyclobutylamino)benzamide]	C* (an IC50 ratio of less than 3 fold between the IC50 in the HAP1 MTAP-intact cell line and the HAP1 MTAP-deleted cell line)	A (a Ki ratio greater than or equal to 10 fold between the Ki in the presence of SAM and the Ki in the presence of MTA)
≥ 10	≥ 10	0.5 to 5	≥ 5	0.5 to 5	O=C(NC[C@H](O)CN1CCc2c(ccc(OCc3cnco3)c2Cl)C1)c1cc(NC2CCCC2)ncn1 [Compound 336, (S)—N-(3-(5-chloro-6-(oxazol-5-ylmethoxy)-3,4-dihydroisoquinolin-2(1H)-yl)-2-hydroxypropyl)-6-(cyclopentylamino)pyrimidine-4-carboxamide]	C* (an IC50 ratio of less than 3 fold between the IC50 in the HAP1 MTAP-intact cell line and the HAP1 MTAP-deleted cell line)	A (a Ki ratio greater than or equal to 10 fold between the Ki in the presence of SAM and the Ki in the presence of MTA)
≥ 10	≥ 10	0.5 to 5	≥ 5	0.5 to 5	O=C(NC[C@H](O)CN1CCc2c(ccc(OCc3cnco3)c2Br)C1)c1cc(NC2CCCC2)ncn1 [Compound 337]	C* (an IC50 ratio of less than 3 fold between the IC50 in the HAP1 MTAP-intact cell line and the HAP1 MTAP-deleted cell line)	A (a Ki ratio greater than or equal to 10 fold between the Ki in the presence of SAM and the Ki in the presence of MTA)
≥ 10	≥ 10	0.5 to 5	≥ 5	0.5 to 5	Cc1ncoc1COc1ccc2c(c1Br)CCN(C[C@@H](O)CNC(=O)c1cc(NC3CCC3)ncn1)C2 [Compound 338, (S)—N-(3-(5-bromo-6-((4-methyloxazol-5-yl)methoxy)-3,4-dihydroisoquinolin-2(1H)-yl)-2-hydroxypropyl)-6-(cyclobutylamino)pyrimidine-4-carboxamide]	C* (an IC50 ratio of less than 3 fold between the IC50 in the HAP1 MTAP-intact cell line and the HAP1 MTAP-deleted cell line)	A (a Ki ratio greater than or equal to 10 fold between the Ki in the presence of SAM and the Ki in the presence of MTA)
≥ 10	≥ 10	0.5 to 5	≥ 5	0.05 to 0.5	Cc1ncoc1COc1ccc2c(c1Cl)CCN(C[C@@H](O)CNC(=O)c1cc(NC3CCCC3)ncn1)C2 [Compound 339, N-[(2S)-3-[5-chloro-6-[(4-methyl-1,3-oxazol-5-yl)methoxy]-1,2,3,4-tetrahydroisoquinolin-2-yl)-2-hydroxypropyl]-6-(cxclopentylamino)pyrimidine-4-carboxamide]	C* (an IC50 ratio of less than 3 fold between the IC50 in the HAP1 MTAP-intact cell line and the HAP1 MTAP-deleted cell line)	A (a Ki ratio greater than or equal to 10 fold between the Ki in the presence of SAM and the Ki in the presence of MTA)
≥ 10	≥ 10	0.5 to 5	≥ 5	0.05 to 0.5	O=C(NC[C@H](O)CN1CCc2c(ccc(OCc3cnco3)c2Cl)C1)c1cc(NC2CCC2)ncc1F [Compound 340, (S)—N-(3-(5-chloro-6-(oxazol-5-ylmethoxy)-3N-dihydroisoquinolin-2(1H)-yl)-2-hydroxypropyl)-2-(cyclobutylamino)-5-fluoroisonicotinamide]	C* (an IC50 ratio of less than 3 fold between the IC50 in the HAP1 MTAP-intact cell line and the HAP1 MTAP-deleted cell line)	A (a Ki ratio greater than or equal to 10 fold between the Ki in the presence of SAM and the Ki in the presence of MTA)
1 to 10	≥ 10	0.05 to 0.5	0.5 to 5	0.05 to 0.5	Cc1c(OCc2cnco2)cc(F)c2c1CCN(C[C@@H](O)CNC(=O)c1ccnc(NC3CCC3)c1)C2 [Compound 341, 2-(cyclobutylamino)-N-[(2S)-3-[8-fluoro-5-methyl-6-(oxazol-5-ylmethoxy)-3,4-dihydro-1H-isoquinolin-2-yl]-2-hydroxy-propyl]pyridine-4-carboxamide]	B* (an IC50 ratio greater than or equal to 3 fold but lower than 10 fold between the IC50 in the HAP1 MTAP-intact cell line and the HAP1 MTAP-deleted cell line)	A (a Ki ratio greater than or equal to 10 fold between the Ki in the presence of SAM and the Ki in the presence of MTA)
